Data on two compounds can be found in patent EP4495227A1, “CO-CULTURES OF ORGANOIDS AND STROMAL CELLS” (HUB Organoids IP B.V., priority 2023, dated 2025).

Assay [1] deals with type I nodal receptor ALK7. As to conditions: Tocris catalog description; cited from earlier work.
Assay [2] relates to ALK-1, -2, -3, -6 and MAPK activity. The settings on record: Tocris catalog description; cited from earlier work.
Assay [3] has as its target type I activin/nodal receptor ALK4. As to conditions: Tocris catalog description; cited from earlier work.
Assay [4] concerns caspase 3/7 activity. The experiment in a line: Caspase-Glo assay of apoptosis in organoid-fibroblast co-cultures challenged with TNF and IFNγ. Type of assay: cell-based, human. As to conditions: 10 µM tofacitinib; upon exposure to inflammatory cytokines; Figure 5B; measured in accordance with Example 6. The protocol:
(§1) In Examples 4-9, fibroblast cultures, organoid cultures, and co-cultures of the fibroblasts and organoids, were prepared according to Examples 1-2. OSM (1 ng/mL) and IL-1β (1 ng/mL) were added to the co-cultures according to Example 3 where "proinflammatory stimuli" or "proinflammatory stimulation" are specified in Examples 4-9. Co-cultures were then incubated on plates for 72 hours at 37°C and 5% CO2 prior to cytokine or caspase analysis, or for 96 hours at 37°C and 5% CO2 prior to imaging analysis.
72 hours after organoids and fibroblasts were combined in co-culture, apoptosis in co-culture was triggered using inflammatory stimuli (in the form of damage-inducing cytokines), and measured 24 hours later, in co-cultures prepared using proinflammatory stimuli and in co-cultures not prepared using proinflammatory stimuli.
Stock solutions of TNF and IFNγ were diluted 1:1 with 0.6% Tween in PBS, and were added to the co-cultures at concentrations of 15 ng/mL and 15 ng/mL respectively. Plates were then incubated for 24 hours.
Apoptosis was assessed using a Caspase-Glo assay (e.g. Promega) to determine relative caspase 3/7 activity. Briefly, 95 µL of room-temperature caspase reagent was added to each plate. Plates were then shaken for 1 minute before incubation in the dark at room temperature for 30 minutes. […]

The test system of assay [5] is co-cultures of the fibroblasts and organoids. The experiment in a line: Imaging of organoid morphology and area in organoid-fibroblast co-cultures (Calcein AM stain). As to conditions: 10 µM tofacitinib; Figure 5A; measured in accordance with Example 4. The assay is classed as cell-based, human. As to the method:
as §1
Organoids in co-culture were first stained with Calcein AM. 48 hours after the organoids and fibroblasts were combined in co-culture, 50 µL DMSO was added to a vial of Calcein AM and mixed. 88 µL of the mixture was added to 4,312 µL of Ad-DF+++ media. 10 µL of the final Calcein AM mixture was added to co-cultures before 5-10 seconds of shaking in a Tecan D300. Plates were then incubated for 2 hours at 37°C and 5% CO2. Imaging were then performed to assess organoid morphology.

With `Cc1cccc(-c2nn(C(=S)Nc3ccccc3)cc2-c2ccnc3ccccc23)n1` [A83-01], the IC50 (as a rule, the concentration that inhibits the measured activity by half) in assay [1] is 7.5 nM; in assay [3], 45 nM. Besides, in assay [2], the “inhibition of ALK-1, -2, -3, -6 and MAPK activity” value is given as “only weakly inhibits”.
`C[C@@H]1CCN(C(=O)CC#N)C[C@@H]1N(C)c1ncnc2[nH]ccc12` [tofacitinib]: in assay [4], the caspase activity result is “greatly diminishes”. In assay [5], the change in morphology entry was “small change”.
